Drawing on PubChem BioAssay (NCI), this text covers TGI and GI50 for nine compounds.

What all share (assay): inhibition of tumour cell growth, NCI panel, 48 h
The subject of assay [1] is SNB-75 CNS.
Assay [2] has as its system M14 melanoma.
Assay [3] deals with HOP-62 NSCLC.
Assay [4] concerns CCRF-CEM leukemia.
Assay [5] relates to RPMI-8226 leukemia.
In assay [6] the test system is SK-MEL-28 melanoma.
Assay [7] has as its system EKVX NSCLC.
The subject of assay [8] is SK-MEL-5 melanoma.
Assay [9] has as its system LOX IMVI melanoma.
Assay [10] deals with U251 CNS.

SMILES strings stand for the structures.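 How tested: cells in 96-well plates exposed to compound for 48 hours at five concentrations. At the GI50, growth is halved. The concentration for full growth arrest is given as TGI.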

As to `CSc1ccc(N2C(=O)C3c4[nH]c5ccccc5c4C4CCC(C(C)(C)C)CC4C3C2=O)cc1` (stereo not drawn), the TGI was 39.2 µM in assay [1]; more than 100 µM in assay [2]; 28.6 µM in assay [3]; 23.5 µM in assay [4]; more than 100 µM in assay [5]; 35.1 µM in assay [6]. In addition, the TGI in [7] came to 44.2 µM; in assay [8], 58.5 µM; in assay [9], 31.8 µM; in assay [10], 31.5 µM.
Regarding `CC1=C(CCC(C)CO)O[C@H]2C[C@H]3[C@@H]4CC[C@H]5C[C@@H](O)CC[C@]5(C)[C@H]4CC(=O)[C@]3(C)[C@@H]12` (stereo partly drawn), the TGI in assay [1] was 50.5 µM; in assay [2], 27 µM; in [3], 38.3 µM; in assay [4], 23.8 µM; in [5], 13.8 µM; in assay [6], more than 78.5 µM. The TGI was more than 90.2 µM in [7], 23.5 µM in assay [8], 33.8 µM in [9] and 37.8 µM in assay [10].
Turning to `COC(=O)C1=C(C)NC(C)=C(C(=O)OC)C1c1cccc(/[N+]([O-])=C/c2ccccc2)c1`, the TGI in assay [1] was more than 100 µM; in [2], 35 µM; in [3] it was more than 100 µM; in assay [4], 44.8 µM; in assay [5], more than 100 µM; in assay [6], 31.6 µM. For the same compound, the TGI in assay [7], in [8], in [9] and in assay [10] was more than 100 µM each time.
For `CCC(=O)NC1=C(Cl)C(=O)C(NC(=O)CC)=C(Cl)C1=O`, the GI50 was 13.7 µM in assay [1]; 15.2 µM in [2]; more than 47.7 µM in [3]; 3.04 µM in assay [4]; 8.98 µM in assay [5]; 10.5 µM in [6]. For the same compound, the GI50 was 18.1 µM in [7], 17.6 µM in assay [8], 16.3 µM in assay [9] and more than 41.9 µM in assay [10]. The TGI was 18.1 µM in assay [1]; 29.9 µM in assay [2]; more than 65.1 µM in assay [3]; more than 21.6 µM in assay [4]; 30.4 µM in assay [5]; 23.2 µM in assay [6]. The TGI in [7] was 33.1 µM; in [8], 31.7 µM; in [9] it was 31.2 µM; in assay [10] it was more than 56 µM.
In the case of `O=C1/C=C/[C@@H](O)[C@@H]2C[C@@H](O)C[C@H]2/C=C/CCC[C@H](CCO)O1`, the GI50 in assay [1] was 0.0994 µM; in assay [2], 0.155 µM; in assay [3] it was 0.237 µM; in [4], 0.362 µM; in assay [5], 0.33 µM; in assay [6], 0.0466 µM. For the same compound, the GI50 in [7] was 0.253 µM; in assay [8] it was 0.0201 µM; in assay [9], 0.157 µM; in [10], 0.382 µM. Further, the TGI in [1] is more than 100 µM; in assay [2], more than 100 µM; in assay [3] it was more than 31.6 µM; in assay [4] it was more than 100 µM; in assay [5], 6.34 µM; in [6], 0.56 µM. The TGI in assay [7] is more than 100 µM; in assay [8], 0.0423 µM; in [9], 0.377 µM; in assay [10], more than 100 µM.
Turning to `CN1CCN(Cc2ccc(NC(=O)c3cncc(C#Cc4ccc(N)nc4)c3)cc2C(F)(F)F)CC1`, the GI50 in [1] was 1.06 µM; in [2] it was 0.486 µM; in assay [3], 1.3 µM; in assay [4], 1.46 µM; in assay [5], 1.05 µM; in assay [6], 1.47 µM. For the same compound, the GI50 in assay [7] was 1.16 µM; in assay [8], 1.17 µM; in assay [9], 0.556 µM; in assay [10], 0.924 µM. The TGI in [1] is 3.53 µM; in assay [2] it was 1.63 µM; in [3], 6.08 µM; in assay [4], 11.8 µM; in [5], 3.82 µM; in assay [6], 5.54 µM. The TGI in assay [7] amounted to 6.08 µM; in assay [8] it was 3.24 µM; in assay [9], 1.28 µM; in assay [10] it was 6.6 µM.
In the case of `COc1cccc(N2CC(O)=C(c3nc4ccccc4s3)C2=N)c1`, the TGI in [1] is 1.98 µM; in [2], 48.8 µM; in [3], 23.4 µM; in assay [4], more than 100 µM; in assay [5] it was more than 100 µM; in [6], more than 65 µM. Besides, the TGI in [7] was more than 100 µM; in [8], 23 µM; in [9], more than 100 µM; in assay [10], 19.5 µM. Besides, the GI50 in [2] is 0.35 µM; in [3], 0.56 µM; in [4] it was 0.243 µM; in [6], 0.468 µM; in assay [7], 9.24 µM; in assay [8] it was 0.211 µM. The GI50 in [9] is 0.459 µM; in assay [10] it was 0.42 µM.
Consider `Nc1nc(-c2ccc3c(c2)/C(=C\c2cc(Br)c(O)c(Br)c2)C(=O)N3)cs1`, for which the GI50 in [1] was 11.8 µM; in assay [2], 5.02 µM; in [3] it was more than 17 µM; in assay [4] it was 9.36 µM; in assay [5], 14.9 µM; in assay [6], 7.99 µM. The GI50 in assay [7] is more than 25 µM; in [8], 5.4 µM; in assay [9] it was 7.84 µM; in assay [10], 12.8 µM. Further, the TGI in assay [1] is more than 25 µM; in assay [2] it was 11.8 µM; in assay [3], more than 25 µM; in [4] it was more than 25 µM; in assay [5], more than 25 µM; in [6], more than 25 µM. Moreover, the TGI in [7] was more than 25 µM; in assay [8] it was 12.1 µM; in assay [9] it was more than 25 µM; in assay [10] it was more than 25 µM.
In the case of `COc1ccc(C(C2=C(O)CC(C)OC2=O)C2=C(O)CC(C)OC2=O)cc1` (stereo not drawn), the TGI in assay [1], in assay [2], in assay [3], in [4], in assay [5] and in assay [6] was more than 100 µM throughout. In addition, the TGI in assay [7], in [8], in assay [9] and in [10] was more than 100 µM throughout.
